{"source": "ChEMBL document CHEMBL4387741", "about": "“Optimization of novel reversible Bruton's tyrosine kinase inhibitors identified using Tethering-fragment-based screens” (Bioorg Med Chem, 2019)", "key": {"[1]": {"molecular_target": "Mitogen-activated protein kinase kinase kinase 19 (Homo sapiens) (UniProt Q56UN5)", "experiment": "Inhibition of wild-type human partial length YSK4 (T1019 to H1328 residues) expressed in mammalian expression system at 1 uM by Kinomescan method relative to control"}, "[2]": {"experiment": "Oral bioavailability in Sprague-Dawley rat using amorphous solid form of compound", "format": "ADME, organism-based", "settings": "in vivo"}, "[3]": {"molecular_target": "Uncharacterized serine/threonine-protein kinase SBK3 (Homo sapiens) (UniProt P0C264)", "sequence (P0C264 whole entry, the tested form may be a part)": "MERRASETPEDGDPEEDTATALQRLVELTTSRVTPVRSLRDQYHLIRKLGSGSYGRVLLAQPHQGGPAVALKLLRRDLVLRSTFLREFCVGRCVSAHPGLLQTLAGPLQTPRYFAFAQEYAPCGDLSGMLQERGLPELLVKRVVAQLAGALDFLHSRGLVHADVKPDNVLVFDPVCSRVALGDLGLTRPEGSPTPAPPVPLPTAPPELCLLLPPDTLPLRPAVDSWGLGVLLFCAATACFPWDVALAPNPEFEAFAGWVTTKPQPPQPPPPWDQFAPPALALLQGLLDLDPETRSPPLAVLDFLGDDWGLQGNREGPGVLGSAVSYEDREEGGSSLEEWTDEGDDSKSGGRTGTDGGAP", "experiment": "Inhibition of wild-type human partial length SgK110 (L22 to R329 residues) expressed in bacterial expression system at 1 uM by Kinomescan method relative to control"}, "[4]": {"molecular_target": "Serine/threonine-protein kinase Sgk3 (Homo sapiens) (UniProt Q96BR1)", "experiment": "Inhibition of wild-type human partial length SGK3 (M119 to L496 residues) expressed in mammalian expression system at 1 uM by Kinomescan method relative to control"}, "[5]": {"molecular_target": "Non-receptor tyrosine-protein kinase TYK2 (Homo sapiens) (UniProt P29597)", "experiment": "Inhibition of wild-type human partial length TYK2 JH1 catalytic domain (V877 to C1187 residues) expressed in mammalian expression system at 1 uM by Kinomescan method relative to control"}, "[6]": {"molecular_target": "Ribosomal protein S6 kinase beta-1 (Homo sapiens) (UniProt P23443)", "experiment": "Inhibition of wild-type human partial length S6K1 (M1 to S421 residues) expressed in mammalian expression system at 1 uM by Kinomescan method relative to control"}, "[7]": {"experiment": "Terminal half-life in Sprague-Dawley rat at 1 mg/kg, iv", "format": "ADME, organism-based", "settings": "in vivo, read-out: beta t1/2 (converted)"}, "[8]": {"molecular_target": "Tyrosine-protein kinase ITK/TSK (Homo sapiens) (UniProt Q08881)", "sequence (Q08881 whole entry, the tested form may be a part)": "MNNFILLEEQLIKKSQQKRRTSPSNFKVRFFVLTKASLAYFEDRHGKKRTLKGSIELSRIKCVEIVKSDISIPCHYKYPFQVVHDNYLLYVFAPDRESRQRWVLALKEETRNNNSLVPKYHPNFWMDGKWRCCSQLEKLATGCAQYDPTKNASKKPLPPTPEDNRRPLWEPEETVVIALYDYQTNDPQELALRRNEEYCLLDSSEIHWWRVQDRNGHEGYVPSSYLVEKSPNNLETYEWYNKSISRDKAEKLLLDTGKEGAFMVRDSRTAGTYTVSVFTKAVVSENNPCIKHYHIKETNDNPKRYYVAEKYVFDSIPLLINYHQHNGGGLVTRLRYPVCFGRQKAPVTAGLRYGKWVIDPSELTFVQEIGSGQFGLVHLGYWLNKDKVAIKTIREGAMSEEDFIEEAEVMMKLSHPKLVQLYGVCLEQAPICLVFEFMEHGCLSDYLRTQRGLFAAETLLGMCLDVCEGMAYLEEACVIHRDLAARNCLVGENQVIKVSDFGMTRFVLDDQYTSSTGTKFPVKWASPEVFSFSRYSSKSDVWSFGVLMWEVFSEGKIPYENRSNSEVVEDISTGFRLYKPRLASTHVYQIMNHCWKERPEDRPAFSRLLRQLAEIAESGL", "experiment": "Inhibition of wild-type human partial length ITK (R335 to L620 residues) expressed in bacterial expression system at 1 uM by Kinomescan method relative to control"}, "[9]": {"molecular_target": "Peripheral plasma membrane protein CASK (Homo sapiens) (UniProt O14936)", "experiment": "Inhibition of wild-type human partial length CASK (M1 to H315 residues) expressed in mammalian expression system at 1 uM by Kinomescan method relative to control"}, "[10]": {"system": "Epidermal growth factor receptor (Homo sapiens), P00533 [L858R]", "experiment": "Inhibition of human partial length EGFR L858R mutant (R669 to V1011 residues) expressed in bacterial expression system at 1 uM by Kinomescan method relative to control"}, "[11]": {"molecular_target": "3-phosphoinositide-dependent protein kinase 1 (Homo sapiens) (UniProt O15530)", "experiment": "Inhibition of wild-type human full length PDPK1 (M1 to Q556 residues) expressed in bacterial expression system at 1 uM by Kinomescan method relative to control"}, "[12]": {"system": "eIF-2-alpha kinase GCN2 (Homo sapiens), Q9P2K8 [S808G]", "experiment": "Inhibition of wild-type human partial length GCN2 kinase domain 2 (R585 to T1018 residues) S808G mutant expressed in bacterial expression system at 1 uM by Kinomescan method relative to control"}, "[13]": {"molecular_target": "Tyrosine-protein kinase ZAP-70 (Homo sapiens) (UniProt P43403)", "experiment": "Inhibition of wild-type human partial length ZAP70 (D20 to G299 residues) expressed in mammalian expression system at 10 uM by Kinomescan method relative to control"}, "[14]": {"molecular_target": "Calcium/calmodulin-dependent protein kinase type II subunit alpha (Homo sapiens) (UniProt Q9UQM7)", "sequence (Q9UQM7 whole entry, the tested form may be a part)": "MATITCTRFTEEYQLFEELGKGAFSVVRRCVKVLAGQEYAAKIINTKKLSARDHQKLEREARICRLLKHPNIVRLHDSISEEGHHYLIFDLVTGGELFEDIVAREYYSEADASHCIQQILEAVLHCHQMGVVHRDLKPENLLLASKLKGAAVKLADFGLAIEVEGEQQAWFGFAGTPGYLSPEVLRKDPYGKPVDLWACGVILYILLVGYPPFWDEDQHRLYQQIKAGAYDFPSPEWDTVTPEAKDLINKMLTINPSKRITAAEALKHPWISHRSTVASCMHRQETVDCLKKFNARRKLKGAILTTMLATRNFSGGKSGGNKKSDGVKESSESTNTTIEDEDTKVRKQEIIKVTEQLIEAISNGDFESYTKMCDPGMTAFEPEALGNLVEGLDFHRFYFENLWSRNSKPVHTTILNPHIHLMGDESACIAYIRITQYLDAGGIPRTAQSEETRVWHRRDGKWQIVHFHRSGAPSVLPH", "experiment": "Inhibition of wild-type human partial length CAMK2A (M1 to K328 residues) expressed in bacterial expression system at 10 uM by Kinomescan method relative to control"}, "[15]": {"molecular_target": "Angiopoietin-1 receptor (Homo sapiens) (UniProt Q02763)", "experiment": "Inhibition of wild-type human partial length TIE2 (N804 to T1112 residues) expressed in bacterial expression system at 10 uM by Kinomescan method relative to control"}, "[16]": {"molecular_target": "Dual specificity protein kinase CLK3 (Homo sapiens) (UniProt P49761)", "experiment": "Inhibition of wild-type human full length CLK3 (M1 to R490 residues) expressed in bacterial expression system at 10 uM by Kinomescan method relative to control"}, "[17]": {"molecular_target": "Serine/threonine-protein kinase 36 (Homo sapiens) (UniProt Q9NRP7)", "sequence (Q9NRP7 whole entry, the tested form may be a part)": "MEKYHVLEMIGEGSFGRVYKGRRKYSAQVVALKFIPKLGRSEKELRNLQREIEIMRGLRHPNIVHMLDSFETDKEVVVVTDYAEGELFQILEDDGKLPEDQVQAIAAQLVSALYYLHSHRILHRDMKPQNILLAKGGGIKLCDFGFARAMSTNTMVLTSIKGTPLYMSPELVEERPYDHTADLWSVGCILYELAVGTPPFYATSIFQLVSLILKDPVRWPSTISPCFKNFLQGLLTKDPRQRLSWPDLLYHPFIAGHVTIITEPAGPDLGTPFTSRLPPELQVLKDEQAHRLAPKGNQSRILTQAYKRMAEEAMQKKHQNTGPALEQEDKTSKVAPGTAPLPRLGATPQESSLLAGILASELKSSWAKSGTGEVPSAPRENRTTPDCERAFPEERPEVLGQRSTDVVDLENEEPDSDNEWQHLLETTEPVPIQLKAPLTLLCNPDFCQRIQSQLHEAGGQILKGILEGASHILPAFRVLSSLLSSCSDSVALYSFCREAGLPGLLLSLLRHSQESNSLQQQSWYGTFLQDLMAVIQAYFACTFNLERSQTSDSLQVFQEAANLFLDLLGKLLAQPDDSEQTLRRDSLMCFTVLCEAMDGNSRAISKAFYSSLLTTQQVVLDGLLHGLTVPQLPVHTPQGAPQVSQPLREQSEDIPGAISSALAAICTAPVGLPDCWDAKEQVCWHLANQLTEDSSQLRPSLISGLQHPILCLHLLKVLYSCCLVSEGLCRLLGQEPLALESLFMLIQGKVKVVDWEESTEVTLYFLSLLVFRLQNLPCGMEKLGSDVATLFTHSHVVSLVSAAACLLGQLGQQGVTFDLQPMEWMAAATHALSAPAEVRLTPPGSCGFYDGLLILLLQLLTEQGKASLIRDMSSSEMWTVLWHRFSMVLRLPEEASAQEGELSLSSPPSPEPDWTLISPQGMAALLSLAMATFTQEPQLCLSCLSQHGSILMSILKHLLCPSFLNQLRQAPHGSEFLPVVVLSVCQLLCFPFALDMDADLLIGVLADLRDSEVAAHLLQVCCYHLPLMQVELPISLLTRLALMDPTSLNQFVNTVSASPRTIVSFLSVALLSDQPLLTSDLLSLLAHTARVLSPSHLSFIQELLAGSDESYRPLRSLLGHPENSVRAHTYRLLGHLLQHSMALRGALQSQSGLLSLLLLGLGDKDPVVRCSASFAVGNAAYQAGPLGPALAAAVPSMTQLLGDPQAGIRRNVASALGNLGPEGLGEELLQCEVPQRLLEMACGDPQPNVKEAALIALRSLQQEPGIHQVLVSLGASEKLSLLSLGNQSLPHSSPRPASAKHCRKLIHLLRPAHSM", "experiment": "Inhibition of wild-type human partial length STK36 (M1 to T271 residues) expressed in bacterial expression system at 10 uM by Kinomescan method relative to control"}, "[18]": {"molecular_target": "Casein kinase I isoform alpha (Homo sapiens) (UniProt P48729)", "experiment": "Inhibition of wild-type human partial length CSNK1A1 (M1 to L450 residues) expressed in mammalian expression system at 10 uM by Kinomescan method relative to control"}, "[19]": {"molecular_target": "Calcium/calmodulin-dependent protein kinase type 1 (Homo sapiens) (UniProt Q14012)", "sequence (Q14012 whole entry, looked up, the tested form may be a part)": "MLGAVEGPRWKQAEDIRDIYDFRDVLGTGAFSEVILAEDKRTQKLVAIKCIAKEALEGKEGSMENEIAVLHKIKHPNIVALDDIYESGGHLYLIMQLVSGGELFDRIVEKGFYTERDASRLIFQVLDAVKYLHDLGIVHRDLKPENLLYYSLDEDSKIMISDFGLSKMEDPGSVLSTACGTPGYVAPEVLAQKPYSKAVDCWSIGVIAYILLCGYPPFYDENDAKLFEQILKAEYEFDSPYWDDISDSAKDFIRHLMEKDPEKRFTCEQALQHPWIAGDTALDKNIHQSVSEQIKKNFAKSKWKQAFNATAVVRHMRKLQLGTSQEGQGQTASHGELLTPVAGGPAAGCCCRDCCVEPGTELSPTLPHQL", "experiment": "Inhibition of wild-type human full length CAMK1 (M1 to L370 residues) expressed in bacterial expression system at 10 uM by Kinomescan method relative to control"}, "[20]": {"molecular_target": "Insulin-like growth factor 1 receptor (Homo sapiens) (UniProt P08069)", "experiment": "Inhibition of wild-type human partial length IGF1R (L972 to D1294 residues) expressed in bacterial expression system at 10 uM by Kinomescan method relative to control"}, "[21]": {"molecular_target": "Serine/threonine-protein kinase TAO2 (Homo sapiens) (UniProt Q9UL54)", "sequence (Q9UL54 whole entry, the tested form may be a part)": "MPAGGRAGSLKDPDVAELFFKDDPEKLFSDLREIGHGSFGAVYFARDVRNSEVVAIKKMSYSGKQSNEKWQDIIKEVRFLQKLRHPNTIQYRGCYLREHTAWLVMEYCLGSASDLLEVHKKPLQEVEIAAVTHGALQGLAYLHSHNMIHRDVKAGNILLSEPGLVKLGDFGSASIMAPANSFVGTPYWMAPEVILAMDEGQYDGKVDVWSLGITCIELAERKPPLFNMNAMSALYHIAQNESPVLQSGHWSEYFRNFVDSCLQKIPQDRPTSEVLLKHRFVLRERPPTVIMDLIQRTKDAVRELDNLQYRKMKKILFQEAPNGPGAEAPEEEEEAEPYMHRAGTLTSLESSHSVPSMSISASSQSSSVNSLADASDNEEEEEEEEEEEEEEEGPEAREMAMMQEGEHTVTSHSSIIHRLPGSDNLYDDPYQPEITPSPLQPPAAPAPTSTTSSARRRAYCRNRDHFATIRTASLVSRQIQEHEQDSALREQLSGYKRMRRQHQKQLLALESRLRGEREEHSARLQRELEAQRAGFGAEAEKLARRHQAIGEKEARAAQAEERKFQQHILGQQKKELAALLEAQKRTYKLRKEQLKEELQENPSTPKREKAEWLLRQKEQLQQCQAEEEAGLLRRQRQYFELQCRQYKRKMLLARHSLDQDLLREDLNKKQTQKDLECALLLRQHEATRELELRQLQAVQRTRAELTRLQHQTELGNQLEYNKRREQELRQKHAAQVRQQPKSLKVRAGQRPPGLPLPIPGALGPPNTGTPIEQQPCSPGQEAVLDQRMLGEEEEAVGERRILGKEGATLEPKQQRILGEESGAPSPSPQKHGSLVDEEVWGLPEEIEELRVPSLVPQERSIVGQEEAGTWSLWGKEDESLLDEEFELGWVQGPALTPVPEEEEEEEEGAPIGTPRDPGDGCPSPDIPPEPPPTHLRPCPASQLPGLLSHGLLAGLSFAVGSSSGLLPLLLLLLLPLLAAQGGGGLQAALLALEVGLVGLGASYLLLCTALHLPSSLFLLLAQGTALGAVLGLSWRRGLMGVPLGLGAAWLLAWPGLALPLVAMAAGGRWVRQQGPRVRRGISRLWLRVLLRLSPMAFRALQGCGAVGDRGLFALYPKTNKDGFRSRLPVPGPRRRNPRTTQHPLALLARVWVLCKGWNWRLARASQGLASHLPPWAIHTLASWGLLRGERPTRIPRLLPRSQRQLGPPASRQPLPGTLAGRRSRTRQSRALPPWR", "experiment": "Inhibition of wild-type human partial length TAOK2 (M1 to A320 residues) expressed in mammalian expression system at 10 uM by Kinomescan method relative to control"}, "[22]": {"molecular_target": "Ephrin type-B receptor 3 (Homo sapiens) (UniProt P54753)", "experiment": "Inhibition of wild-type human partial length EPHB3 (Q599 to T928 residues) expressed in bacterial expression system at 10 uM by Kinomescan method relative to control"}, "[23]": {"molecular_target": "Activin receptor type-1 (Homo sapiens) (UniProt Q04771)", "experiment": "Inhibition of wild-type human ACVR1 (C188 to C509 residues) expressed in bacterial expression system at 10 uM by Kinomescan method relative to control"}, "[24]": {"molecular_target": "Mitogen-activated protein kinase kinase kinase 14 (Homo sapiens) (UniProt Q99558)", "experiment": "Inhibition of wild-type human partial length NIK (L318 to P947 residues) expressed in mammalian expression system at 10 uM by Kinomescan method relative to control"}, "[25]": {"system": "Tyrosine-protein kinase ABL1 (Homo sapiens), P00519 [F317L]", "experiment": "Inhibition of human phosphorylated ABL1 F317L mutant (S229 to K512 residues) expressed in mammalian expression system at 10 uM by Kinomescan method relative to control"}, "[26]": {"molecular_target": "Atypical kinase COQ8A, mitochondrial (Homo sapiens) (UniProt Q8NI60)", "sequence (Q8NI60 163-647 limits assumed)": "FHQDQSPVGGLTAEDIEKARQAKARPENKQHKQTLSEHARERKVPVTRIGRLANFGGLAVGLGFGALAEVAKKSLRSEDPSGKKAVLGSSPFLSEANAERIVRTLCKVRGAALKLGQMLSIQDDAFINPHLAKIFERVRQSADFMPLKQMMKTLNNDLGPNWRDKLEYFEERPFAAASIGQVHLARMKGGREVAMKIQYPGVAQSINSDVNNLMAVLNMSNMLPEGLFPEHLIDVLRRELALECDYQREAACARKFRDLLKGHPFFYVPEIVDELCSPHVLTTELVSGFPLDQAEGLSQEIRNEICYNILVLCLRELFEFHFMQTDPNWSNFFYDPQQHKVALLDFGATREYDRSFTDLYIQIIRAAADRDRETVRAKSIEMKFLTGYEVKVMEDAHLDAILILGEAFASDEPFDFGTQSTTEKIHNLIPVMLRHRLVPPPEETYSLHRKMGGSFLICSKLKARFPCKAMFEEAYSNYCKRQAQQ", "experiment": "Inhibition of wild-type human […] ADCK3 (M280 to Q647 residues) expressed in bacterial expression system at 10 uM by Kinomescan method relative to control"}, "[27]": {"molecular_target": "Activin receptor type-1-like (Homo sapiens) (UniProt P37023)", "experiment": "Inhibition of wild-type human ACVRL1 (L164 to Q503 residues) expressed in bacterial expression system at 10 uM by Kinomescan method relative to control"}, "[28]": {"system": "Tyrosine-protein kinase ABL1 (Homo sapiens), P00519 [M351T]", "experiment": "Inhibition of human phosphorylated ABL1 M351T mutant (S229 to K512 residues) expressed in mammalian expression system at 10 uM by Kinomescan method relative to control"}}, "data": [{"smiles": "O=C(Nc1cccc([C@@H]2CN(c3ncnc4[nH]ccc34)CCN2CCO)c1)Nc1c(F)cccc1N1CCCC1", "values": [{"measurement": "inhibition", "setting": "[1]", "result": 40, "unit": "%"}, {"measurement": "bioavailability", "setting": "[2]", "result": 12, "unit": "%"}, {"measurement": "inhibition", "setting": "[3]", "result": 100, "unit": "%"}, {"measurement": "inhibition", "setting": "[4]", "result": 84, "unit": "%"}, {"measurement": "inhibition", "setting": "[5]", "result": 0, "unit": "%"}, {"measurement": "inhibition", "setting": "[6]", "result": 48, "unit": "%"}, {"measurement": "half-life", "setting": "[7]", "result": 2.5, "unit": "h"}, {"measurement": "inhibition", "setting": "[8]", "result": 0.8, "unit": "%"}, {"measurement": "inhibition", "setting": "[9]", "result": 78, "unit": "%"}, {"measurement": "inhibition", "setting": "[10]", "result": 99, "unit": "%"}, {"measurement": "inhibition", "setting": "[11]", "result": 34, "unit": "%"}, {"measurement": "inhibition", "setting": "[12]", "result": 95, "unit": "%"}]}, {"smiles": "O=C(Nc1cccc([C@H]2CCCN(c3ncnc4[nH]ccc34)C2)c1)Nc1ccccc1N1CCCC1", "values": [{"measurement": "inhibition", "setting": "[13]", "result": 75, "unit": "%"}, {"measurement": "inhibition", "setting": "[14]", "result": 77, "unit": "%"}, {"measurement": "inhibition", "setting": "[15]", "result": 75, "unit": "%"}, {"measurement": "inhibition", "setting": "[16]", "result": 87, "unit": "%"}, {"measurement": "inhibition", "setting": "[17]", "result": 90, "unit": "%"}, {"measurement": "inhibition", "setting": "[18]", "result": 62, "unit": "%"}, {"measurement": "inhibition", "setting": "[19]", "result": 24, "unit": "%"}, {"measurement": "inhibition", "setting": "[20]", "result": 100, "unit": "%"}, {"measurement": "inhibition", "setting": "[21]", "result": 100, "unit": "%"}, {"measurement": "inhibition", "setting": "[22]", "result": 100, "unit": "%"}, {"measurement": "inhibition", "setting": "[23]", "result": 100, "unit": "%"}, {"measurement": "inhibition", "setting": "[24]", "result": 75, "unit": "%"}, {"measurement": "inhibition", "setting": "[25]", "result": 87, "unit": "%"}, {"measurement": "inhibition", "setting": "[26]", "result": 100, "unit": "%"}, {"measurement": "inhibition", "setting": "[27]", "result": 100, "unit": "%"}, {"measurement": "inhibition", "setting": "[28]", "result": 71, "unit": "%"}]}]}
